Results from patent publication US20220088100A1, “COSMETIC, PHARMACEUTICAL AND NUTRACEUTICAL USE OF AN EXTRACT DERIVED FROM CANNABISSATIVA CELL CULTURES” (ARTERRA BIOSCIENCE S.P.A., priority 2018, published 2022).
Where a name gives a salt, the structure may show the parent alone.

System: histamine production in RAW 264.7 cells (macrophages)
Assay: Histamine content in macrophages stressed with CGRP
Type: cell-based
Conditions: RAW 264.7, 50 μg/ml 2 h, then 10 nM CGRP 16 h; reduction compared with that of the extract
Experimental: To determine whether the plant cell culture extract according to the invention was able to reduce the production of histamine induced by the CGRP peptide in the immune system cells, an assay was conducted for the quantization of the histamine content in macrophages subjected to a stress condition by the CGRP neuropeptide.
RAW 264.7 cells were seeded in 96-well plates in an initial number of 5×10^4, and after 16 h, they were treated with different doses of the extract or with the anti-histamine compound cetirizine dihydrochloride (50 μg/ml), used as a positive control of the experiment. After 2 h of treatment with the extract or with cetirizine, the production of histamine was induced by the treatment with 10 nM of CGRP and, after 16 h, the amount of histamine was measured by adding 100 μl of methanol containing 0.4 M NaOH and 1 mg/ml of o-Phthaldialdehyde (OPT). After 10 minutes of incubation at room temperature, 50 μl of 0.1M HCl was added to each well to stop the reaction. Fluorescence was measured at 443 nm using a 360 nm excitation wavelength from the multi-plate reader, Victor3 (Perkin Elmer). The histamine content was calculated as a percentage of the value of the control cells stressed with 10 nM CGRP, arbitrarily set as 100%.

O=C(O)COCCN1CCN(C(c2ccccc2)c2ccc(Cl)cc2)CC1 (stereo not shown) [cetirizine, cetirizine dihydrochloride]
production of histamine in macrophages, positive control: similarly
